Data on 16 compounds can be found in ChEMBL document CHEMBL5113388 (Bioorg Med Chem Lett, 2022).

In one data set the test system is BaF3. Kind of data set: Antiproliferative activity against mouse BaF3 cells harboring del19/T790M/C797S mutant assessed as inhibition of cell proliferation. The data set is classed as functional, cell-based.
In data set [1] the test system is PC-9. Kind of data set: Antiproliferative activity against human PC-9 cells harboring EGFR del19/T790M/C797S mutant assessed as inhibition of cell proliferation. It is filed as functional, cell-based.
Data set [2] in a line: Volume of distribution at steady state in CD-1 mouse at 2 mg/kg, iv. Conditions: in vivo, read-out: Vdss. It is filed as ADME, organism-based.
For data set [3], the species on record is Homo sapiens. In words: Selectivity ratio of IC50 for inhibition of wild type EGFR (unknown origin) to IC50 for inhibition of EGFR del19/T790M mutant (unknown origin).
Data set [4] deals with Epidermal growth factor receptor (Homo sapiens, UniProt P00533, L858R/T790M). In words: Inhibition of EGFR L858R/T790M mutant (unknown origin).
For data set [5], the species on record is Homo sapiens. In words: Selectivity ratio of IC50 for inhibition of wild type EGFR (unknown origin) to IC50 for inhibition of EGFR del19 mutant (unknown origin).
Data set [6] can be described thus: Cmax in CD-1 mouse at 10 mg/kg, po. The data set is classed as ADME, organism-based. On the set-up: dose 10 mg/kg, route po. The following applies: in vivo.
For data set [7], the target named is Epidermal growth factor receptor (Homo sapiens, UniProt P00533). In words: Inhibition of wild type EGFR (unknown origin).
Data set [8] has as its target Epidermal growth factor receptor (Homo sapiens, UniProt P00533, EX19DEL). In words: Inhibition of EGFR del19 mutant (unknown origin).
The species named for data set [9] is Homo sapiens. Kind of data set: Selectivity ratio of IC50 for inhibition of wild type EGFR (unknown origin) to IC50 for inhibition of EGFR del19/T790M/C797S mutant (unknown origin).
Data set [10] can be described thus: AUC (0 to last) in CD-1 mouse at 2 mg/kg, iv. It is filed as ADME, organism-based. Also noted: time 0 - last, dose 2 mg/kg, route iv. Conditions: in vivo.
A short description of data set [11]: Oral bioavailability in CD-1 mouse at 10 mg/kg. Conditions: in vivo. The data set is classed as ADME, organism-based.
A short description of data set [12]: Clearance in CD-1 mouse at 2 mg/kg, iv. It is filed as ADME, organism-based. The following applies: in vivo.
The nature of data set [13]: AUC (0 to last) in CD-1 mouse at 10 mg/kg, po. The data set is classed as ADME, organism-based. Also noted: time 0 - last, dose 10 mg/kg, route po. The following applies: in vivo.
For data set [14], the species on record is Homo sapiens. Kind of data set: Selectivity ratio of IC50 for inhibition of wild type EGFR (unknown origin) to IC50 for inhibition of EGFR L858R/T790M/C797S mutant (unknown origin).
The species named for data set [15] is Homo sapiens. In words: Selectivity ratio of IC50 for inhibition of wild type EGFR (unknown origin) to IC50 for inhibition of EGFR L858R/T790M mutant (unknown origin).
The target of data set [16] is Epidermal growth factor receptor (Homo sapiens, UniProt P00533, C797S/L858R/T790M). Kind of data set: Inhibition of EGFR L858R/T790M/C797S mutant (unknown origin).
The target in data set [17] is Epidermal growth factor receptor (Homo sapiens, UniProt P00533, EX19DEL/T790M). Kind of data set: Inhibition of EGFR del19/T790M mutant (unknown origin).
The target of data set [18] is Epidermal growth factor receptor (Homo sapiens, UniProt P00533, L858R). In words: Inhibition of EGFR L858R mutant (unknown origin).
Data set [19] can be described thus: Half-life in CD-1 mouse at 2 mg/kg, iv. The data set is classed as ADME, organism-based. The following applies: in vivo.
Data set [20] in a line: Tmax in CD-1 mouse at 10 mg/kg, po. It is filed as ADME, organism-based. The following applies: in vivo.
The species entered for data set [21] is Homo sapiens. In words: Selectivity ratio of IC50 for inhibition of wild type EGFR (unknown origin) to IC50 for inhibition of EGFR L858R mutant (unknown origin).
The target in data set [22] is Epidermal growth factor receptor (Homo sapiens, UniProt P00533, C797S/EX19DEL/T790M). Kind of data set: Inhibition of EGFR del19/T790M/C797S mutant (unknown origin).
Data set [23] deals with PC-9. Kind of data set: cells. The following applies: Homo sapiens, PC-9, 72 h.

Broadly, the IC50 is the concentration at which inhibition is half-maximal. What is called Cmax is the maximum level reached in the sampled fluid or tissue. One may read the bioavailability as the share of a dose that reaches the circulation, judged against a reference dose that is usually intravenous. By clearance is commonly meant the rate of elimination divided by the concentration. Read a low clearance as inefficient removal. A word on the AUC(0-t): it is exposure summed from dosing to a finite time, without extrapolation to infinity. Usually half-life stands for the time needed for the level to fall by half in the phase considered. The Tmax is the time from dosing to the highest level.

Epidermal growth factor receptor (Homo sapiens, UniProt P00533, C797S/L858R/T790M), sequence (P00533 25-1210 T790M/C797S/L858R limits assumed): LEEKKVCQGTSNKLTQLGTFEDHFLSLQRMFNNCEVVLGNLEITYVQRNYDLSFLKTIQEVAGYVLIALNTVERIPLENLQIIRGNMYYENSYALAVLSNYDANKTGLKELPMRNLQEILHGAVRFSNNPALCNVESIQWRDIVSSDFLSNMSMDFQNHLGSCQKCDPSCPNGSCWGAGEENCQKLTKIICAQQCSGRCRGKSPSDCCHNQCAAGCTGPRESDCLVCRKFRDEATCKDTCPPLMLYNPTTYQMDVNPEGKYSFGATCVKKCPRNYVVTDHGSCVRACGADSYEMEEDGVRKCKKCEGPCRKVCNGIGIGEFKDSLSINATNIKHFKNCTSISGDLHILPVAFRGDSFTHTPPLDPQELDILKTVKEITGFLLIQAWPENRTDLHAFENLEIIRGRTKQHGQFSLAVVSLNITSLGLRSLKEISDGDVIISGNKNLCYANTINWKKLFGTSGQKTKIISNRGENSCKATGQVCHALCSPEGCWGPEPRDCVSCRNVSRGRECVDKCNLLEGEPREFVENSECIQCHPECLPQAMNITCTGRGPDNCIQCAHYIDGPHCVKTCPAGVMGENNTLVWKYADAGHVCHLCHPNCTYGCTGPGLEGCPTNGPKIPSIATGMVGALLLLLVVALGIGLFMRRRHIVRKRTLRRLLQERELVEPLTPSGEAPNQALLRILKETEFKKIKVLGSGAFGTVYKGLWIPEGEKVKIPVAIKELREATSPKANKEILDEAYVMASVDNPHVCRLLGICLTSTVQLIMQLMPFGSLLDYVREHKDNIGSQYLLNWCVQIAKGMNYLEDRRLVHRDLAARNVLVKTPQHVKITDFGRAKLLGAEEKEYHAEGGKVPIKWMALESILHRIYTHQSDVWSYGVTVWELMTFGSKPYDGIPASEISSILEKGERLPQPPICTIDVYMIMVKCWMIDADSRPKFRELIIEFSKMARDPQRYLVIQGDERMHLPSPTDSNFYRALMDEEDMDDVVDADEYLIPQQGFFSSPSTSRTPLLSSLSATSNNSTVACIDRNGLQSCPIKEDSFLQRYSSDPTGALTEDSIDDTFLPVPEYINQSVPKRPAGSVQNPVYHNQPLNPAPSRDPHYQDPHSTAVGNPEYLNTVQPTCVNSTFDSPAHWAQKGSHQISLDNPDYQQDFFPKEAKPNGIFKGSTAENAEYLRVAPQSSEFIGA
Epidermal growth factor receptor (Homo sapiens, UniProt P00533, L858R), sequence (P00533 25-1210 L858R limits assumed): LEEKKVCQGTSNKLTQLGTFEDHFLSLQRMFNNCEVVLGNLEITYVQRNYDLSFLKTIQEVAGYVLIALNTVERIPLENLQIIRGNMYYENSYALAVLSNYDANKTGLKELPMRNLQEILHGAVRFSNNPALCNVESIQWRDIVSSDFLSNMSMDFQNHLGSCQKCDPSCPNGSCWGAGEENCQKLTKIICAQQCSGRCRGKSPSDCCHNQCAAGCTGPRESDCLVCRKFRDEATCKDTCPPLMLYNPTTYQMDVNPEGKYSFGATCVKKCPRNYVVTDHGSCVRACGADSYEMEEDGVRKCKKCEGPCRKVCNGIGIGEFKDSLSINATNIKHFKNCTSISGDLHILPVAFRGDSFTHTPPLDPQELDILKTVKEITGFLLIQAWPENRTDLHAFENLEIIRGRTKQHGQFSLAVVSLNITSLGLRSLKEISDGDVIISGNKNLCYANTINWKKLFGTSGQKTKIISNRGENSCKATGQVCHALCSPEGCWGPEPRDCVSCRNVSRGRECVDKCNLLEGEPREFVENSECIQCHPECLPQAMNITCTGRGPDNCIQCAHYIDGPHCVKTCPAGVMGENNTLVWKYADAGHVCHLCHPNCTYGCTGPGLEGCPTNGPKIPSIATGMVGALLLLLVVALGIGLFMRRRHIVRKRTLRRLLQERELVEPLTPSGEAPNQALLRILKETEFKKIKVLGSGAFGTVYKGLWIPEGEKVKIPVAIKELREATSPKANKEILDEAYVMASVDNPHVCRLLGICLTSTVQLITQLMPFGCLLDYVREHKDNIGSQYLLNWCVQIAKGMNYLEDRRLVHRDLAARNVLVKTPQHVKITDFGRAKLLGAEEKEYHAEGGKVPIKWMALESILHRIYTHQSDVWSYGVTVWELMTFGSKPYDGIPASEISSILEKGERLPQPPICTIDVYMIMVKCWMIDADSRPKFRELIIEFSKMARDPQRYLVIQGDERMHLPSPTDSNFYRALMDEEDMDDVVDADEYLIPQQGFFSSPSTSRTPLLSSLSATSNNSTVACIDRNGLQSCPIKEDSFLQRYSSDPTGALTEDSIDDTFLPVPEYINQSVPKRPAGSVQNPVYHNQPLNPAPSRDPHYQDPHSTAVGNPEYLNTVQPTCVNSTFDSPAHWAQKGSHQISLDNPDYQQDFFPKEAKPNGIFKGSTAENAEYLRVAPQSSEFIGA
Epidermal growth factor receptor (Homo sapiens, UniProt P00533, L858R/T790M), sequence (P00533 25-1210 T790M/L858R limits assumed): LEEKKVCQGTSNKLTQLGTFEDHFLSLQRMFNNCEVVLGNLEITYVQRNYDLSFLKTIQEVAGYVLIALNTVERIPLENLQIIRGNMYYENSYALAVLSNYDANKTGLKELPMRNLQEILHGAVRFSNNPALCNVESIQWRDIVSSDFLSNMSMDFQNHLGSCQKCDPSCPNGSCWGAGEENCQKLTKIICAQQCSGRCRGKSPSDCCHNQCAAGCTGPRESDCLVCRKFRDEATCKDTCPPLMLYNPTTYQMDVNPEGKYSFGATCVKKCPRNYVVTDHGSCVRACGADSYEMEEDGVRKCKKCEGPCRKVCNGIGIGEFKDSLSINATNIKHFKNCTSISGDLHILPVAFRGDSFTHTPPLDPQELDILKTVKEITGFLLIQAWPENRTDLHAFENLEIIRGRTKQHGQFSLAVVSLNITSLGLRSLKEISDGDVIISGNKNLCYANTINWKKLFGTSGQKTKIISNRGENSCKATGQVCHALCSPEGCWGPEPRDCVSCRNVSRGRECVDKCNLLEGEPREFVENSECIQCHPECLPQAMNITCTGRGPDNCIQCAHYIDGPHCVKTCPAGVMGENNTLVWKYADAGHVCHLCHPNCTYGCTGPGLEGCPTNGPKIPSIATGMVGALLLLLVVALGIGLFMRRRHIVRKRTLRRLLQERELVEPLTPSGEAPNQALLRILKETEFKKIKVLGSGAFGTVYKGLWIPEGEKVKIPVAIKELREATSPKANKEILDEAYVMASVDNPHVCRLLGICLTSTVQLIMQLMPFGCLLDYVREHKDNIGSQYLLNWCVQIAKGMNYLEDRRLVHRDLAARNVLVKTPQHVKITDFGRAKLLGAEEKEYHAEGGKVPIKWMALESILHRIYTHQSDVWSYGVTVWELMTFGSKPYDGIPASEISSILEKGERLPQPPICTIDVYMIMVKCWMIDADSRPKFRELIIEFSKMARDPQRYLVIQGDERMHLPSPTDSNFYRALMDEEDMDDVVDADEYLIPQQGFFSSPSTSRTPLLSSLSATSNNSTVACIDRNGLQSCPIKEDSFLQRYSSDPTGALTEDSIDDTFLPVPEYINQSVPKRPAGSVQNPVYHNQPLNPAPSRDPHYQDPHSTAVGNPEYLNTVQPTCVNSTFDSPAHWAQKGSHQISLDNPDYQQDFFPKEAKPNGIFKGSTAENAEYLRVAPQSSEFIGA
Epidermal growth factor receptor (Homo sapiens, UniProt P00533, EX19DEL/T790M), sequence (P00533 whole entry, looked up, stated change not applied): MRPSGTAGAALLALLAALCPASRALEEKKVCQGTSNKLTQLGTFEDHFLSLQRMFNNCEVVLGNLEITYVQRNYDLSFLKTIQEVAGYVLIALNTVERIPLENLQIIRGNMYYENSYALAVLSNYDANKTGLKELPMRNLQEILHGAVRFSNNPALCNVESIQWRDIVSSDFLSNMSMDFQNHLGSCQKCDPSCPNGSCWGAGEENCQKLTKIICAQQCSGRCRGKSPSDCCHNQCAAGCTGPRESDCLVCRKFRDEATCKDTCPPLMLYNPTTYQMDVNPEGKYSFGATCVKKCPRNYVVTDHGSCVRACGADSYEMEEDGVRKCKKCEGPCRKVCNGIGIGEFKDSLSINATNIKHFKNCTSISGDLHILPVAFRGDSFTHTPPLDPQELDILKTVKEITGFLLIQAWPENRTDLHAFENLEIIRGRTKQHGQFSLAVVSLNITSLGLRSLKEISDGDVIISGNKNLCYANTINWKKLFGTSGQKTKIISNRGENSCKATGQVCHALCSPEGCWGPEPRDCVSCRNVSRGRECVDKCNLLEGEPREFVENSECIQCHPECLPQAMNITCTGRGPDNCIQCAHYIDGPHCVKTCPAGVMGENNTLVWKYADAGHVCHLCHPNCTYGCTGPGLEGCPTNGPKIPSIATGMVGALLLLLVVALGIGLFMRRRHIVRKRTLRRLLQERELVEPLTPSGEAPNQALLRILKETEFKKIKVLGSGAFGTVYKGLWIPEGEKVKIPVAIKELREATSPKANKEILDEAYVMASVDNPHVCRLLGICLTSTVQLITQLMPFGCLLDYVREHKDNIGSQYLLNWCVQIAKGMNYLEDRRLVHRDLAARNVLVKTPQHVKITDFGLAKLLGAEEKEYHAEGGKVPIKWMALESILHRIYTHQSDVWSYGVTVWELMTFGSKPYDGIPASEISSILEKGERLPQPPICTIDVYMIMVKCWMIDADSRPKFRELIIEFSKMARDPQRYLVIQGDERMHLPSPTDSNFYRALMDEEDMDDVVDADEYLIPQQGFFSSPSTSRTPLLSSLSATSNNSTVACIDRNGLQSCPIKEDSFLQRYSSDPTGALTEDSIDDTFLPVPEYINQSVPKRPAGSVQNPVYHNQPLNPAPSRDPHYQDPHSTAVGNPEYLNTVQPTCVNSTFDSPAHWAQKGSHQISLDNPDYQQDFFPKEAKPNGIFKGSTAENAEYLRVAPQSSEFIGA

Consider `COc1cc(N2CCC(N3CCN(C)CC3)CC2)c(-c2cnn(C3CC3)c2)cc1Nc1ncc(Br)c(Nc2ccc(C)c(C)c2P(C)(C)=O)n1`, for which the IC50 in the data set on BaF3 and in the data set on PC-9 [1] was over 1000 nM in each case.
As for `CCc1cc(Nc2ncc(Br)c(Nc3ccc(C4CC4)cc3P(C)(C)=O)n2)c(OC)cc1N1CCC(N2CCN(CCS(C)(=O)=O)CC2)CC1`, the IC50 in the data set with BaF3 and with PC-9 [1] was over 1000 nM in each case.
For the compound `COc1cc(N2CCC(N3CCN(C)CC3)CC2)ccc1Nc1ncc(Br)c(Nc2cc3c4c(cccc4c2P(C)(C)=O)COC3)n1`, the IC50 in the data set on BaF3 and in the data set with PC-9 [1] was over 1000 nM in each case.
For `COc1cc(N2CCC(N3CCN(C)CC3)CC2)ccc1Nc1ncc(Br)c(Nc2ccc3c(ccc4ccccc43)c2P(C)(C)=O)n1`, the IC50 with BaF3 and in the data set with PC-9 [1] was over 1000 nM each time.
In the case of `COc1cc(N2CCC(N3CCN(C)CC3)CC2)c(-c2cnn(C)c2)cc1Nc1ncc(Br)c(Nc2cc(F)c(C)c(C)c2P(C)(C)=O)n1`, the IC50 in the data set on BaF3 and with PC-9 [1] was over 1000 nM each time.
In the case of `COc1cc(N2CCC(N3CCN(CCS(C)(=O)=O)CC3)CC2)c(-c2cnn(C)c2)cc1Nc1ncc(Br)c(Nc2ccc(C)c(C)c2P(C)(C)=O)n1`, the IC50 in the data set with BaF3 and with PC-9 [1] was over 1000 nM each time.
As for `COc1cc(N2CCC(N3CCN(C)CC3)CC2)c(-c2cnn(C)c2)cc1Nc1ncc(Br)c(Nc2cc(C)c(C)c(C)c2P(C)(C)=O)n1`, the concentration for half-maximal inhibition (IC50) with BaF3 is 3.6 nM; in the data set on PC-9 [1], 67.4 nM.
As for `COc1cc(N2CCC(N3CCN(C)CC3)CC2)ccc1Nc1ncc(Br)c(Nc2cc3c4c(cccc4c2P(C)(C)=O)CC3)n1`, the IC50 in the data set with BaF3 and with PC-9 [1] was over 1000 nM each time.
In the case of `CCc1cc(Nc2ncc(Br)c(Nc3ccc4nccnc4c3P(C)(C)=O)n2)c(OC)cc1N1CCC(N2CCN(CCSC)CC2)CC1`, the IC50 with BaF3 came to 3.87 nM; in the data set on PC-9 [1] it was 148 nM.
Consider `CCc1cc(Nc2ncc(Br)c(Nc3ccc4nccnc4c3P(C)(C)=O)n2)c(OC)cc1N1CCC(N(C)CCS(C)(=O)=O)CC1`, for which the IC50 in the data set with PC-9 [1] was 127 nM.
As for `CCc1cc(Nc2ncc(Br)c(Nc3cc4c5c(cccc5c3P(C)(C)=O)COC4)n2)c(OC)cc1N1CCC(N2CCN(C)CC2)CC1`, the IC50 in the data set on BaF3 and with PC-9 [1] was over 1000 nM each time.
On to `CCc1cc(Nc2ncc(Br)c(Nc3ccc4nc5c(nc4c3P(C)(C)=O)CCCC5)n2)c(OC)cc1N1CCC(N2CCN(C)CC2)CC1`, for which the IC50 in the data set on BaF3 amounted to 37.4 nM; in the data set with PC-9 [1], 217 nM.
In the case of `CCc1cc(Nc2ncc(Br)c(Nc3ccc4nccnc4c3P(C)(C)=O)n2)c(OC)cc1N1CCC(N2CCN(CCS(C)(=O)=O)CC2)CC1`, the IC50 with BaF3 stood at 1.53 nM; in data set [4], 0.2 nM; in data set [7], 10.4 nM; in [8], 0.9 nM; in data set [16], 0.3 nM; in data set [17], 0.1 nM. The IC50 in data set [18] stood at 3.1 nM; in the data set with PC-9 [1] it was 66.7 nM; in data set [22] it was 0.2 nM. The Vd in [2] is 0.7 L/kg. Also, the Ratio IC50 came to 81 in the data set filed under Homo sapiens [3]; 11 in the data set filed under Homo sapiens [5]; 54 in the data set listed under Homo sapiens [9]; 41 in the data set listed under Homo sapiens [14]; 43 in the data set listed under Homo sapiens [15]; 3.4 in the data set listed under Homo sapiens [21]. The peak concentration (Cmax) in data set [6] amounted to 6600 ng/mL. Moreover, in data set [10], the AUClast was 13820 ng·h/mL. In data set [11], this compound returned a bioavailability of 48.9%. The clearance in [12] was found to be 2.4 mL/min/kg. Moreover, the AUC(0-t) in data set [13] is 33800 ng·h/mL. This compound had a half-life in [19] of 3.3 h. The Tmax in data set [20] is 0.5 h.
For `COc1cc(N2CCC(N3CCN(C)CC3)CC2)ccc1Nc1ncc(Cl)c(Nc2ccccc2P(C)(C)=O)n1` [BRIGATINIB], in the data set with PC-9 [23], the IC50 was 599 nM.
As to `CCc1cc(Nc2ncc(Br)c(Nc3ccc4c(ccc5ccccc54)c3P(C)(C)=O)n2)c(OC)cc1N1CCC(N2CCN(C)CC2)CC1`, the IC50 in the data set with BaF3 and in the data set with PC-9 [1] was over 1000 nM throughout.
For `CCc1cc(Nc2ncc(Br)c(Nc3cc4c5c(cccc5c3P(C)(C)=O)CC4)n2)c(OC)cc1N1CCC(N2CCN(C)CC2)CC1`, the half-maximal inhibitory concentration (IC50) in the data set on BaF3 and in the data set on PC-9 [1] was over 1000 nM in each case.
